Data from publication PMC5458644 (Neoplasia (New York, N.Y.), 2017).

How the values were obtained:
[1] = Secondary pharmacology panel; conditions: 10 μM initial screen; apart from adenosine receptors; data not shown
B16-CD73+ tumor cells = assay: Experimental lung metastasis model, B16-CD73+ cells i.v.; format: in vivo, C57Bl/6 mice; conditions: 15 mg/kg/day oral gavage, daily for 15 days, vs vehicle, P < .05
MCA205 tumor cells = assay: Experimental lung metastasis model, MCA205 cells i.v.; format: in vivo, C57Bl/6 mice; conditions: 30 mg/kg/day oral gavage, daily for 7 days, vs vehicle, P < .05
[2] = test system: human tumor-infiltrating lymphocytes (TILs); assay: Ex vivo assay of disaggregated resected NSCLC tumors, γ-interferon ELISA; format: cell-based; conditions: tumors of Figure 5 A and B; 3 days culture
A2aR = conditions: alone or in combination with anti-PD-1 and anti-CTLA4; cited from earlier work

SMILES: Nc1nc(-n2cccn2)nc(-n2cccn2)c1Br [PBF-509]
- effect in secondary pharmacology profile [1]: did not show any relevant effect
- tumor burden (lung nodules, lung weight) (B16-CD73+ tumor cells): significantly reduced tumor burden
- tumor burden (lung nodules, lung weight) (MCA205 tumor cells): significantly reduced tumor burden
- TIL function (γ-interferon), combination of PBF-509 with anti-PD-L1 [2]: improved TIL function in an additive fashion

SMILES: Nc1nc2c(cnn2CCc2ccccc2)c2nc(-c3ccco3)nn12 [SCH58261]
- tumor burden in vivo (A2aR): decreased tumor burden

SMILES: Nc1nc(NCCc2ccc(O)cc2)nc2nc(-c3ccco3)nn12 [ZM241385]
- tumor burden in vivo (A2aR): decreased tumor burden
